Marks after values point to notes of the source that are not given here.
How the values were obtained:
[1] = Comparative storage stability of sodium and calcium salts (Example 42); format: physicochemical; conditions: for Tri50c (w/w %, LOD corr.): corrected for loss on drying
Source text: In both studies the active pharmaceutical ingredient was stored in grip sealed double bags within a PE/PP screw cap closed cylinder.

[2] = Stability: HPLC assay before and after drying over phosphorus pentoxide for 1 week; format: physicochemical; conditions: dry
Procedure: An assay of TRI 50c and its sodium and lysine salts before and after drying.
For sample analysis, 5 mg of dried and non-dried material was weighed in a 5 mL volumetric flask and dissolved in 1 mL acetonitrile and filled up with demineralised water to 5 mL.
The quantitative evaluation was performed using an HPLC-PDA method.

[3] = Maximum solution concentration with and without pH control; format: physicochemical
beagle dogs = assay: Intravenous administration in beagle dogs, PK/PD (thrombin time, APTT); format: in vivo; conditions: 1.0 mg/kg i.v.
Procedure: Plasma concentrations were measured using an LCMS/MS method.
Blood samples were taken into 3.8% tri-sodium citrate (1+8) at pre dose, 2, 5, 10, 20, 30, minutes post dose and then at 1, 2, 3, 4, 6, 8, 12 and 24 hours post dose. Plasma was prepared by centrifugation and frozen at minus 20° C. pending analysis.

healthy male subjects = assay: Intravenous administration into humans (randomised double blind placebo study); format: in vivo; conditions: intravenous infusion
Procedure: The test consisted of three groups, each of six males. From each group 5 men were given the active ingredient and 1 was given a placebo.
Total I.V. administered doses were: • 82 mg (7 mg intravenous bolus (over 30 s) followed by an infusion of 25 mg/h for 3 hours). • 130 mg (10 mg intravenous bolus (over 30 s) followed by an infusion of 40 mg/h for 3 hours). • 120 mg (by infusion of 40 mg/h for 3 hours).

[4] = tested on: dogs undergoing hypothermic CPB; assay: Simulated mitral valve repair in dogs undergoing hypothermic CPB; format: in vivo, beagle dogs; conditions: intravenous, dogs on CPB
Procedure: Following a dose ranging study in conscious dogs, six beagle dogs were placed on CPB and underwent a simulated mitral valve repair. A range of dynamic coagulation markers were measured, including thrombin clotting time (TT), activated partial thromboplastin time (APTT), activated clotting time (ACT), ecarin clotting time (ECT), whole blood thrombin clotting time, platelet counts and function tests. In addition, pre and post-operative echocardiograms and intra-operative blood loss were evaluated. […] By virtue of its predictable anticoagulant efficacy and controlled duration of action, TGN 255 offers potential in on pump and off pump coronary bypass procedures.

## COCCC[C@H](NC(=O)[C@@H]1CCCN1C(=O)[C@@H](Cc1ccccc1)NC(=O)OCc1ccccc1)B([O-])O.COCCC[C@H](NC(=O)[C@@H]1CCCN1C(=O)[C@@H](Cc1ccccc1)NC(=O)OCc1ccccc1)B([O-])O.[Ca+2] [TRI 50c calcium salt]
[1]; T = 0
  Tri50c (w/w %, LOD corr.): (99.7) w/w %
[1]; T = 1, 25° C./60% r.h.
  Tri50c (w/w %, LOD corr.): (101.5) w/w %
[1]; T = 1, 40° C./75% r.h.
  Tri50c (w/w %, LOD corr.): (100.6) w/w %
[1]; T = 1, −20° C.
  Tri50c (w/w %, LOD corr.): (102.7)^x w/w %
[1]; T = 3, 25° C./60% r.h.
  Tri50c (w/w %, LOD corr.): (104.3) w/w %
[1]; T = 3, 40° C./75% r.h.
  Tri50c (w/w %, LOD corr.): (82.0) w/w %
[1]; T = 3, −20° C.
  Tri50c (w/w %, LOD corr.): (103.0)^x w/w %
[1]; T = 12 25° C./60% r.h.
  TRI 50c (w/w): 94.8 w/w

## COCCC[C@H](NC(=O)[C@@H]1CCCN1C(=O)[C@@H](Cc1ccccc1)NC(=O)OCc1ccccc1)B(O)O [TRI 50c, Cbz-(R)-Phe-(S)-Pro-(R)-boroMpg-OH]
[2]
  Amount: 1000.0 µg/mL

## COCCC[C@H](NC(=O)[C@@H]1CCCN1C(=O)[C@@H](Cc1ccccc1)NC(=O)OCc1ccccc1)B(O)O.[Na+] [TRI 50c sodium salt, Cbz-(R)-Phe-(S)-Pro-(R)-Mpg-B(OH)2 monosodium salt]
[3]; control solution, about pH 7
  Maximum concentration: about 20 mg/ml
[3]; pH of about 9.5, pH not controlled
  Concentration of solution obtainable: about 600 mg/ml
Beagle dogs
  APTT elevation: 1.3 times
Healthy male subjects
  Effect on thrombin time (TT): rapid, dose-related increase
[4]
  Anticoagulation during bypass and surgery: excellent anticoagulation
  Bleeding during bypass and surgery: little bleeding

From patent US20120040904A1, “Boronate Medicaments for Preventing Thrombosis During Surgery” (Trigen Holdings AG, priority 2004, published 2012)
